These results are taken from ChEMBL document CHEMBL1177798, “Interaction of aminoadamantane derivatives with the influenza A virus M2 channel-docking using a pore blocking model” (Bioorg Med Chem Lett, 2010).

Each structure is given as a SMILES string.

The target in the test is Matrix protein 2 (Influenza A virus, UniProt P06821). Put plainly: Binding affinity to Influenza A Weybridge(H7N7) virus Matrix protein 2 by spectrophotometry. Details: species or system Influenza A virus (A/chicken/FPV/Weybridge(H7N7)); call rule not given here.
Matrix protein 2, sequence (P06821 whole entry): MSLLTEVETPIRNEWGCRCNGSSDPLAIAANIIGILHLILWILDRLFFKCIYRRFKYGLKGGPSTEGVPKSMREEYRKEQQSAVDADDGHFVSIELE

`NC1CCCC1` [CYCLOPENTANAMINE]: the Kd entry is listed as “Not Active”.
